Data on 50 compounds can be found in patent US7745424B2, “Alkane diol derivatives as therapeutic agents for the treatment of bone conditions” (The Univeristy Court of the University of Aberdeen, priority 2001, dated 2010).

In the first experiment the test system is macrophage cell line J774. Briefly: MTT macrophage J774 viability assay. It counts as cell-based. The following applies: 100 μM. On the procedure: MTT (3-(4,5-dimethylthiazol-2-yl)-2,5-diphenyl tetrazolium bromide) has an […] colour and is soluble in the medium used for cell culture. The mitochondrial enzyme succinate dehydrogenase acts upon MTT in living cells to produce the insoluble purple coloured formazan. The amount of formazan produced, as measured by UV/visible spectroscopy, is proportional to the number of viable cells.
The medium was carefully removed using a needle without dislodging the crystal layer. 100 μL acidified isopropanol (4 M HCl 1:100 v/v in isopropanol) was added to each well and the purple crystals allowed to dissolve. The absorbance was measured in a plate reader at 540 nm, with 690 nm as reference. The controls were a deep purple colour, indicating a high number of live cells.
Addition of Compounds. […] These stock solutions were then diluted 100× in culture medium.
Turning to `O=C(OCCCCO)c1ccc(Cc2ccccc2)cc1` [ABD-0034, 1,4-Butanediol mono(4-benzylbenzoic acid)Ester], the “activity at 100 μM concentration” value is reported as “little activity”.
With `O=C(Cc1cccc2ccccc12)OCCCCO` [ABD-0032, 1,4-Butanediol mono(naphth-1-yl-acetic acid)Ester], the “activity at 100 μM concentration” value is reported as “little activity”.
For `COc1ccc(CC(=O)OCCCCO)cc1OC` [ABD-0033, 1,4-Butanediol mono(homoveratric acid)Ester], the “activity at 100 μM concentration” value is listed as “little activity”.
Still for that read-out and setting: in the case of `O=C(OCCCCO)c1ccccc1-c1ccccc1` [ABD-0059, 1,4-Butanediol (biphenyl-2-carboxylic acid) ester] it was “little activity”.

The experiment is the same for the next values; noted with them: MTT assay, range of concentrations (FIGS. 4-7).
Consider `CC(C)Cc1ccc(C(C)C(=O)OCCCCO)cc1` (stereo not drawn) [ABD-0036, 1,4-Butanediol mono[2-(4-isobutylphenyl)Propionic acid]ester], for which the “macrophage J774 viability, activity in words” value was “most active”.
For `O=C(O)c1ccc(-c2ccccc2)cc1` [biphenylcarboxylic acid, reference compound], the “macrophage J774 viability, activity in words” value is “not active”.
Same read-out and setting: in the case of `CCCCOC(=O)c1ccc(-c2ccccc2)cc1` [ABD-0053, Butyl (biphenyl-4-carboxylic acid) ester] it was “very little activity”; in that of `O=C(Cc1ccc(-c2ccccc2)cc1)OCCCCCCO` [ABD-0044, 1,6-Hexanediol mono(biphenyl-4-yl-acetic acid)Ester], “very active”.

Staying with this experiment, now noted: Mus musculus; macrophage J774 viability, MTT assay.
Turning to `O=C(Cc1ccccc1)OCCCCCCOC(=O)Cc1ccccc1` [ABD-0017, 1,6-Hexanediol di(phenylacetic acid)Ester], the IC50 was above 100 µM.
`CC(C)Cc1ccc(C(C)C(=O)OCCCCO)cc1` (stereo not drawn) [ABD-0036, 1,4-Butanediol mono[2-(4-isobutylphenyl)Propionic acid]ester]: half-maximal inhibition (IC50) was put at 52 µM.
`O=C(OCCCCO)c1ccccc1` [ABD-0008, 1,4-Butanediol mono(benzoic acid)Ester] yielded an IC50 above 100 µM.
`CCCCOC(=O)C(C)c1ccc(CC(C)C)cc1` (stereo not drawn) [ABD-0035, Butyl [2-(4-isobutylphenyl)Propionic acid] ester] gave an IC50 of 72 µM.
`O=C(OCCCCO)c1ccc(Cc2ccccc2)cc1` [ABD-0034, 1,4-Butanediol mono(4-benzylbenzoic acid)Ester] displayed an IC50 above 100 µM.
As to `O=C(OCCCCCCO)C(c1ccccc1)(c1ccccc1)c1ccccc1` [ABD-0031, 1,6-Hexandiol mono(triphenylacetic acid)Ester], the IC50 is 40 µM.
`O=C(Cc1ccc(-c2ccccc2)cc1)OCCCO` [ABD-0041, 1,3-Propanediol mono(biphenyl-4-yl-acetic acid)Ester] registered a concentration for half-maximal inhibition (IC50) of 75 µM.
The compound `CC(=O)OCCCCOC(C)=O` [ABD-0006, 1,4-Butanediol di(acetic acid)Ester] yielded an IC50 above 100 µM.
The same measure, in the same setting: in the case of `O=C(Cc1cccc2ccccc12)OCCCCO` [ABD-0032, 1,4-Butanediol mono(naphth-1-yl-acetic acid)Ester] it was above 100 µM; in that of `CC(C)Cc1ccc(C(C)C(=O)OCCCCCCO)cc1` (stereo not drawn) [ABD-0039, 1,6-Hexanediol mono[2-(4-isobutylphenyl)Propionic acid]ester], 72 µM; in that of `COc1ccc(CC(=O)OCCCCO)cc1OC` [ABD-0033, 1,4-Butanediol mono(homoveratric acid)Ester], above 100 µM.
On to `O=C(OCCCCOC(=O)c1ccccc1)c1ccccc1` [ABD-0009, 1,4-Butanediol di(benzoic acid)Ester], for which the IC50 was above 100 µM.
`CCCCOC(=O)c1ccc(-c2ccccc2)cc1` [ABD-0053, Butyl (biphenyl-4-carboxylic acid) ester]: the IC50 was above 100 µM.
Same read-out and setting: in the case of `O=C(Cc1ccc(-c2ccccc2)cc1)OCCCCCO` [ABD-0043, 1,5-Pentanediol mono(biphenyl-4-yl-acetic acid)Ester] it was above 100 µM.
Regarding `O=C(Cc1ccc(-c2ccccc2)cc1)OCCCCCCO` [ABD-0044, 1,6-Hexanediol mono(biphenyl-4-yl-acetic acid)Ester], the IC50 was 28 µM.
`O=C(OCCCCO)c1ccccc1-c1ccccc1` [ABD-0059, 1,4-Butanediol (biphenyl-2-carboxylic acid) ester] yielded an IC50 above 100 µM.
The compound `CC(C)Cc1ccc(C(C)C(=O)OCCCO)cc1` (stereo not drawn) [ABD-0037, 1,3-Propanediol mono[2-(4-isobutylphenyl)Propionic acid]ester] gave an IC50 of 72 µM.
Same read-out and setting: in the case of `O=C(OCCCCOC(=O)C1CCCCC1)C1CCCCC1` [ABD-0019, 1,4-Butanediol di(cyclclohexanecarboxylic acid)Ester] it was above 100 µM.
Compound `O=C(Cc1ccccc1)OCCCCOC(=O)Cc1ccccc1` [ABD-0014, 1,4-Butanediol di(phenylacetic acid)Ester] showed a half-maximal inhibitory concentration (IC50) above 100 µM.
The same measure, in the same setting: in the case of `O=C(OCCCCCO)C(c1ccccc1)(c1ccccc1)c1ccccc1` [ABD-0030, 1,5-Pentandiol mono(triphenylacetic acid)Ester] it was 40 µM.
As for `CC(C)Cc1ccc(C(C)C(=O)OCCCCCO)cc1` (stereo not drawn) [ABD-0038, 1,5-Pentanediol mono[2-(4-isobutylphenyl)Propionic acid]ester], the IC50 worked out at 68 µM.
As for `O=C(OCCCO)c1ccc(-c2ccccc2)cc1` [ABD-0057, 1,3-Propanediol mono(biphenyl-4-carboxylic acid)Ester], the IC50 is above 100 µM.
Take `O=C(OCCCCCO)c1ccc(-c2ccccc2)cc1` [ABD-0055, 1,5-Pentanediol mono(biphenyl-4-carboxylic acid)Ester]: the IC50 is 65 µM.
As for `CCCC(=O)OCCCCOC(=O)CCC` [ABD-0007, 1,4-Butanediol di(butanoic acid)Ester], the IC50 is above 100 µM.
Turning to `CCCCOC(=O)Cc1ccc(-c2ccccc2)cc1` [ABD-0040, Butyl (biphenyl-4-yl-acetic acid) ester], the IC50 is above 100 µM.

In the next experiment the test system is macrophage cell line J774. Briefly: Alamar Blue macrophage J774 viability assay. The conditions noted are these: Mus musculus, J774, 72 h, read-out: IC50 (μM) Alamar Blue.
Regarding `O=C(OCCCCO)c1ccc(-c2ccccc2[N+](=O)[O-])cc1` [ABD-0098, 1,4-Butanediol mono(2′-nitro-biphenyl-4-carboxylic acid)Ester], the IC50 turned out to be 17 µM.
On to `O=C(OCCCCOC(=O)c1c(F)c(F)c(F)c(F)c1F)c1c(F)c(F)c(F)c(F)c1F` [ABD-0085, 1,4-Butanediol di(pentafluorobenzoic acid)Ester], for which the IC50 turned out to be 4 µM.
For the compound `O=C(OCCCCBr)c1ccc(-c2ccccc2)cc1` [ABD-0086, 4-Bromobutyl (biphenyl-4-carboxylic acid) ester], the IC50 is above 100 µM.
As for `O=C(OCCCCO)c1ccc(-c2ccccc2F)cc1` [ABD-0099, 1,4-Butanediol mono(2′-fluoro-biphenyl-4-carboxylic acid)Ester], the concentration for half-maximal inhibition (IC50) stood at 14 µM.
Still for that read-out and setting: in the case of `Cc1ccc(-c2ccc(C(=O)OCCCCO)cc2)cc1` [ABD-0070, 1,4-Butanediol mono(4′-methyl-biphenyl-4-carboxylic acid)Ester] it was above 100 µM.
As to `CCCCCOC(=O)c1ccc(-c2ccccc2)cc1` [ABD-0090, Pentyl (biphenyl-4-carboxylic acid) ester], the IC50 is 45 µM.
`Cc1ccc(-c2ccc(C(=O)OCCCCO)cc2)cc1C` [ABD-0089, 1,4-Butanediol mono(3′,4′-dimethyl-biphenyl-4-carboxylic acid)Ester]: the IC50 worked out at 9 µM.
For `O=C(OCCCCO)c1ccc(I)cc1` [ABD-0069, 1,4-Butanediol mono(4-iodobenzoic acid)Ester], the IC50 worked out at 90 µM.
With `O=C(OCCCCO)c1cc(F)c(F)cc1F` [ABD-0109, 1,4-Butanediol mono(2,4,5-trifluorobenzoic acid)Ester], the IC50 is above 100 µM.
With `O=C(OCCCCO[N+](=O)[O-])c1ccc(-c2ccccc2)cc1` [ABD-0087, 4-Nitrooxybutyl (biphenyl-4-carboxylic acid) ester], the IC50 was found to be 30 µM.
On the same count and under the same terms, in the case of `O=C(OCCCCO)c1ccc(-c2ccc(F)cc2)cc1` [ABD-0100, 1,4-Butandiol mono(4′-fluoro-biphenyl-4-carboxylic acid)Ester] it was 14 µM; in that of `CC(=O)OCCCCOC(=O)c1ccc(-c2ccccc2)cc1` [ABD-0049, Biphenyl-4-carboxylic acid (4-acetoxy)butyl ester], 50 µM.
On to `O=C(OCCCCO)c1ccc(F)cc1F` [ABD-0110, 1,4-Butanediol mono(2,4-difluorobenzoic acid)Ester], for which the IC50 was above 100 µM.
For `O=C(OCCCCO)c1c(F)ccc(F)c1F` [ABD-0106, 1,4-Butanediol mono(2,3,6-trifluorobenzoic acid)Ester], the IC50 was above 100 µM.
As to `CCc1ccc(-c2ccc(C(=O)OCCCCO)cc2)cc1` [ABD-0094, 1,4-Butanediol mono(4′-ethyl-biphenyl-4-carboxylic acid)Ester], the IC50 was above 100 µM.
`O=C(OCC(F)(F)C(F)(F)CO)c1ccc(-c2ccccc2)cc1` [ABD-0095, 2,2,3,3-Tetrafluoro-butane-1,4-diol mono(biphenyl-4-carboxylic acid)Ester]: the IC50 came to 40 µM.
Consider `O=C(OCCCCO)c1ccc(-c2ccc(Br)cc2)cc1` [ABD-0102, 1,4-Butanediol mono(4′-bromo-biphenyl-4-carboxylic acid)Ester], for which the IC50 stood at 14 µM.
Take `O=C(OCCCCO)c1ccc(F)c(F)c1F` [ABD-0108, 1,4-Butanediol mono(2,3,4-trifluorobenzoic acid)Ester]: the IC50 is above 100 µM.
Still for that read-out and setting: in the case of `O=C(OCCCCO)c1ccc(-c2ccc(O)cc2)cc1` [ABD-0072, 1,4-Butanediol mono(4′-hydroxy-biphenyl-4-carboxylic acid)Ester] it was 45 µM; in that of `COCCCCOC(=O)c1ccc(-c2ccccc2)cc1` [ABD-0050, 4-Methoxybutyl (biphenyl-4-carboxylic acid) ester], above 100 µM; in that of `O=C(OCCCCO)c1ccc(F)c(F)c1` [ABD-0107, 1,4-Butanediol mono(3,4-difluorobenzoic acid)Ester], above 100 µM.
Regarding `COc1ccc(-c2ccc(C(=O)OCCCCO)cc2)cc1` [ABD-0097, 1,4-Butanediol mono(4′-methoxy-biphenyl-4-carboxylic acid)Ester], the IC50 is above 100 µM.
With `O=C(OCCCCO)c1c(F)c(F)c(F)c(F)c1F` [ABD-0077, 1,4-Butanediol mono(pentafluorobenzoic acid)Ester], the IC50 turned out to be 25 µM.
For `O=C(OCCCCOC(=O)c1ccc(F)cc1F)c1ccc(F)cc1F` [ABD-0111, 1,4-Butanediol di(2,4-difluorobenzoic acid)Ester], the IC50 was above 100 µM.
